In experiment [1] the test system is A20 lymphoma cells. Briefly: Immunization with killed CD30-expressing A20 cells and A20 challenge (Example 24). The class given is in vivo. The note with it: mice immunized 2 times with cells killed by the agent; compared to flash freezing; FIG. 24. How it is done: A20 cells expressing human CD30 were treated with CD30-Auristatin ADC (BV; SGN-35) or MMAE for 18 hrs. Alternatively, one aliquot of cells was f1ash frozen. Ficoll centrifugation of treated samples was performed to remove live cells. All samples were analyzed for apoptosis and viability by flow cytometry using annexin V/7AAD. Dying and dead cells were washed, resuspended in PBS, and intraperitoneally injected into mice. The mice were immunized 2 times, 7 days apart. Immunized mice rested for 7 additional days, and then were challenged with A20 lymphoma cells, and tumor growth or rejection was monitored over time.

The target in experiment [2] is CD40 (Homo sapiens, UniProt P25942). To be noted: cited from earlier work.
In experiment [3] the test system is acute myeloid leukemia (AML). The note with it: administered alone; cited from earlier work.
The subject of experiment [4] is CD30+CD8 T cells. Briefly: Proliferation of activated CD30+CD8 T cells treated with CD30 directed vc-MMAE. It counts as cell-based, human. To be noted: anti-CD3-CD28 beads + 10 ng/mL IL-2, 4 days; vs isotype control; FIG. 2. On the procedure: Human primary CD8 T cells were labeled with CSFE and induced to undergo proliferation with anti-CD3-CD28 beads (1 bead per 4 T cells)+10 ng/mL IL-2 for 4 days. […] CD30+CD8 T cells were treated with either CD30 directed vc-MMAE (brentuximab vedotin; BV; SGN-35) or an isotype control. Cells were stained with LIVE/DEAD Fixable Dead Cell Stain (ThermoFisher) and live cells were counted via flow cytometry.

For experiment [5], the system named is Farage cells. The class given is in vivo. To be noted: single agent, SEA-CD70 3 mg/kg or SGN-35 1 mg/kg.

Square brackets hold non-standard residues; d marks the D form. Peptide text beside a SMILES is read from it. * marks the point of attachment. Dolaproine = CO[C@@H]([C@@H]1CCCN1)[C@@H](C)C(=O)O; Dil = CC[C@H](C)[C@H](NC)[C@@H](CC(=O)O)OC; X1 = C[C@@H](N*)[C@@H](O)c1ccccc1; NMeV = CN[C@H](C(=O)O)C(C)C

CD40, sequence (P25942 21-277): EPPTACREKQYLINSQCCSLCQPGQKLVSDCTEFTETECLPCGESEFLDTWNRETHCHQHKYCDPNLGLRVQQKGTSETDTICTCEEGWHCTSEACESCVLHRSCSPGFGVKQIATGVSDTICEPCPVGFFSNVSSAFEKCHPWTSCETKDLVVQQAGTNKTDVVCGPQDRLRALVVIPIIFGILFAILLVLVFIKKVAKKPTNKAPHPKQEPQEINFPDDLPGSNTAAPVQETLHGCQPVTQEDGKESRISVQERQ

As for `CC[C@H](C)[C@@H]([C@@H](CC(=O)N1CCC[C@H]1[C@H](OC)[C@@H](C)C(=O)N[C@H](C)[C@@H](O)c1ccccc1)OC)N(C)C(=O)[C@@H](NC(=O)[C@@H](NC)C(C)C)C(C)C` [MMAE, N-methylvaline-valine-dolaisoleuine-dolaproine-norephedrine] (H-[NMeV]V[Dil][Dolaproine]-X1), the “immune responses rejecting implanted A20 cells” value in experiment [1] was “stronger immune responses”.

“CP-870,893: a humanized IgG2 agonist antibody to CD40”: in experiment [2] (combined with paclitaxel or carboplatin or gemcitabine), the “activity in solid tumor indications” value is reported as “encouraging activity”.

Regarding “CT-011: anti-PD-1 antibody, a humanized antibody”, the “response in treating acute myeloid leukemia (AML) at relapse” value in experiment [3] is on record as “failed to show response”. For “Dacetuzumab: fucosylated humanized S2C6, agonistic CD40 monoclonal antibody”, the clinical activity entry in experiment [2] (phase 1 study in NHL and phase 2 study in DLBCL) is listed as “some clinical activity”. Regarding “SGN-35: CD30-targeting ADC containing MMAE conjugated to the monoclonal antibody cAC10 [reference compound]”, in experiment [4], the “cell proliferation of primary human CD30+CD8 T cells” value was “not significantly altered”. Besides, the “day at which tumors reached an average 5 fold increase of original size” value in experiment [5] (day post implant, untreated 28.5) amounted to 46 days. In addition, the “days post treatment at which tumors reached an average 5 fold increase” value in experiment [5] (untreated 9.5) is on record as 27 days post treatment. Further, the “immune responses rejecting implanted A20 cells” value in experiment [1] is “stronger immune responses”.
